# According to ChEMBL document CHEMBL1201862, “PubChem BioAssay data set” (2004):
#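 Tested at 5 concentrations; 48 h exposure; 96-well plates; endpoints linearly interpolated, else capped at highest concentration. Abbreviation: GI50, concentration required for 50% inhibition of growth.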 The source made the active and inactive calls. No stated cut-off is given here; in the data, active = GI50 up to about 1.1 µM and inactive = higher.
# What was measured:
# Experiment in all cases: NCI anticancer screen, dose series, 48 h
# [1] = test system: HT-29
# [2] = test system: HCC 2998
# [3] = test system: HCT-116
# [4] = test system: OVCAR-3
# [5] = test system: SNB-19
# [6] = test system: IGROV-1
# [7] = test system: EKVX
# [8] = test system: U-251
# [9] = test system: MDA-MB-231
# [10] = test system: Hs-578T
# [11] = test system: MDA-MB-435
# [12] = test system: NCI-H522
# [13] = test system: Malme-3M
# [14] = test system: NCI-H23
# [15] = test system: SF-268
# [16] = test system: SW-620
# [17] = test system: SF-295
# [18] = test system: RXF 393
# [19] = test system: UACC-62
# [20] = test system: SK-MEL-5
# [21] = test system: SN12C
# [22] = test system: M14
# [23] = test system: TK-10
# [24] = test system: DU-145
# [25] = test system: UACC-257
# [26] = test system: RPMI-8226
# [27] = test system: SF-539
# [28] = test system: KM12
# [29] = test system: OVCAR-8
# [30] = test system: COLO 205
# [31] = test system: SNB-75
# [32] = test system: MOLT-4
# [33] = test system: MDA-N
# [34] = test system: A498
# [35] = test system: HCT-15
# [36] = test system: NCI/ADR-RES
# [37] = test system: OVCAR-4
# [38] = test system: CAKI-1
# [39] = test system: NCI-H226
# [40] = test system: PC-3
# [41] = test system: LOX IMVI
# [42] = test system: A549
# [43] = test system: NCI-H460
# [44] = test system: HOP-92
# [45] = test system: SK-OV-3
# [46] = test system: SR
# [47] = test system: 786-0
# [48] = test system: SK-MEL-2
# [49] = test system: SK-MEL-28
# [50] = test system: HOP-62
# [51] = test system: OVCAR-5
# [52] = test system: ACHN
# [53] = test system: UO-31
# [54] = test system: T47D
smiles,measurement,setting,value
N=C(N)NCCN1CC2CCC(CC2)C1,GI50,[1],65.2 µM (inactive)
same,GI50,[2],> 100 µM (inactive)
same,GI50,[3],> 100 µM (inactive)
same,GI50,[4],> 100 µM (inactive)
same,GI50,[5],> 100 µM (inactive)
same,GI50,[6],> 100 µM (inactive)
same,GI50,[7],> 100 µM (inactive)
same,GI50,[8],> 100 µM (inactive)
same,GI50,[9],> 100 µM (inactive)
same,GI50,[10],91.4 µM (inactive)
same,GI50,[11],48.5 µM (inactive)
same,GI50,[12],> 100 µM (inactive)
same,GI50,[13],> 100 µM (inactive)
same,GI50,[14],> 100 µM (inactive)
same,GI50,[15],> 100 µM (inactive)
same,GI50,[16],> 100 µM (inactive)
same,GI50,[17],> 100 µM (inactive)
same,GI50,[18],> 100 µM (inactive)
same,GI50,[19],> 100 µM (inactive)
same,GI50,[20],53.2 µM (inactive)
same,GI50,[21],> 100 µM (inactive)
same,GI50,[22],> 100 µM (inactive)
same,GI50,[23],> 100 µM (inactive)
same,GI50,[24],> 100 µM (inactive)
same,GI50,[25],> 100 µM (inactive)
same,GI50,[26],> 100 µM (inactive)
same,GI50,[27],> 100 µM (inactive)
same,GI50,[28],> 100 µM (inactive)
same,GI50,[29],> 100 µM (inactive)
same,GI50,[30],93.1 µM (inactive)
same,GI50,[31],19.7 µM (inactive)
same,GI50,[32],> 100 µM (inactive)
same,GI50,[33],51.9 µM (inactive)
same,GI50,[34],> 100 µM (inactive)
same,GI50,[35],> 100 µM
same,GI50,[36],> 100 µM (inactive)
same,GI50,[37],> 100 µM (inactive)
same,GI50,[38],> 100 µM (inactive)
same,GI50,[39],80.4 µM (inactive)
same,GI50,[40],44.1 µM (inactive)
same,GI50,[41],> 100 µM (inactive)
same,GI50,[42],> 100 µM (inactive)
same,GI50,[43],> 100 µM (inactive)
same,GI50,[44],25.6 µM (inactive)
same,GI50,[45],> 100 µM (inactive)
same,GI50,[46],> 100 µM (inactive)
same,GI50,[47],> 100 µM (inactive)
same,GI50,[48],> 100 µM (inactive)
same,GI50,[49],> 100 µM (inactive)
same,GI50,[50],> 100 µM (inactive)
same,GI50,[51],> 100 µM (inactive)
same,GI50,[52],> 100 µM (inactive)
same,GI50,[53],> 100 µM (inactive)
same,GI50,[54],> 100 µM (inactive)
